# Measured values published in ChEMBL document CHEMBL6127100, “Plant based steroidal and triterpenoid sapogenins: Chemistry on diosgenin and biological aspects” (Eur J Med Chem, 2024).
# Key:
# [1] = tested on: HeLa; experiment: Antiproliferative activity against human HeLa cells assessed as reduction in cell viability incubated for 24 hrs by MTT assay; assay type: functional, cell-based
# [2] = tested on: HepG2; experiment: Antiproliferative activity against human HepG2 cells assessed as reduction in cell viability incubated for 24 hrs ny MTT assay; assay type: functional, cell-based; settings: HepG2, 24 h
# [3] = tested on: BT-474; experiment: Cytotoxicity against human BT-474 cells; assay type: functional, cell-based
# [4] = tested on: MDA-MB-231; experiment: Cytotoxicity against human MDA-MB-231 cells; assay type: functional, cell-based
# [5] = tested on: U-937; experiment: Antiproliferative activity against human U-937 cells assessed as inhibition of cell growth incubated for 72 hrs by cell-titer glo assay; assay type: functional, cell-based; settings: U-937, 72 h
# [6] = tested on: DU-145; experiment: Cytotoxicity against human DU-145 cells; assay type: functional, cell-based
# [7] = tested on: CCRF-CEM; experiment: Cytotoxicity against human CCRF-CEM cells; assay type: functional, cell-based
# [8] = tested on: U-937; experiment: Cytotoxicity against human U-937 cells; assay type: functional, cell-based
# [9] = tested on: MDA-MB-231; experiment: Cytotoxicity against human MDA-MB-231 cells assessed as reduction in cell viability incubated for 24 hrs by MTT assay; assay type: functional, cell-based; settings: MDA-MB-231, 24 h
# [10] = tested on: RAW264.7; experiment: Anti-inflammatory activity in LPS-induced mouse RAW264.7 cells assessed as inhibition of IL-6 production at by ELISA; assay type: functional; set-up: scale not given: the % may be the effect or the level left
# [11] = tested on: RAW264.7; experiment: Anti-inflammatory activity in LPS-induced mouse RAW264.7 cells assessed as reduction in TNF-alpha production at by ELISA; assay type: functional; set-up: scale not given: the % may be the effect or the level left
# [12] = tested on: Jurkat; experiment: Cytotoxicity against human Jurkat cells assessed as reduction in cell viability incubated for 24 hrs by MTT assay; assay type: functional, cell-based
# [13] = tested on: HepG2; experiment: Antiproliferative activity against human HepG2 cells assessed as reduction in cell viability incubated for 48 hrs by MTT assay; assay type: functional, cell-based; settings: HepG2, 48 h
# [14] = tested on: HeLa; experiment: Cytotoxicity against human HeLa cells; assay type: functional, cell-based
# [15] = tested on: Ca-Ski; experiment: Cytotoxicity against human Ca-Ski cells; assay type: functional, cell-based
# [16] = tested on: T98G; experiment: Antiproliferative activity against human T98G cells assessed as inhibition of cell growth incubated for 72 hrs by celltiter-glo assay; assay type: functional, cell-based
# [17] = tested on: HeLa; experiment: Antiproliferative activity against human HeLa cells assessed as reduction in cell growth by MTT assay; assay type: functional, cell-based
# [18] = tested on: RAW264.7; experiment: Anti-inflammatory activity in mouse RAW264.7 cells assessed as inhibition of LPS-induced TNFalpha production preincubated for 1 hr followed by LPS addition and measured after 24 hrs by ELISA; assay type: functional; set-up: scale not given: the % may be the effect or the level left; settings: time 25 hrs
# [19] = tested on: RAW264.7; experiment: Antiinflammatory activity in LPS-induced mouse RAW264.7 cells assessed as inhibition of IL-6 production pretreated for 1 hr followed by LPS stimulation and measured after 3 hrs by ELISA; assay type: functional; set-up: scale not given: the % may be the effect or the level left; settings: time 4 hrs
# [20] = tested on: DLD-1; experiment: Cytotoxicity against human DLD-1 cells; assay type: functional, cell-based
# [21] = tested on: MCF7; experiment: Cytotoxicity against human MCF7 cells; assay type: functional, cell-based
# [22] = tested on: A549; experiment: Cytotoxicity against human A549 cells assessed as reduction in cell growth incubated for 48 hrs by SRB assay; assay type: functional, cell-based; settings: A549, 48 h
# [23] = tested on: A549; experiment: Cytotoxicity against human A549 cells; assay type: functional, cell-based
# [24] = tested on: DLD-1; experiment: Cytotoxicity against human DLD-1 cells assessed as reduction in cell growth incubated for 48 hrs by SRB assay; assay type: functional, cell-based; settings: DLD-1, 48 h
# [25] = tested on: DU-145; experiment: Cytotoxicity against human DU-145 cells assessed as reduction in cell growth incubated for 48 hrs by SRB assay; assay type: functional, cell-based; settings: DU-145, 48 h
# [26] = tested on: FaDu; experiment: Cytotoxicity against human FaDu cells assessed as reduction in cell growth incubated for 48 hrs by SRB assay; assay type: functional, cell-based
# [27] = tested on: MCF7; experiment: Cytotoxicity against human MCF7 cells assessed as reduction in cell growth incubated for 48 hrs by SRB assay; assay type: functional, cell-based; settings: MCF7, 48 h
# [28] = tested on: FaDu; experiment: Antiproliferative activity against human FaDu cells; assay type: functional, cell-based
# [29] = tested on: DU-145; experiment: Antiproliferative activity against human DU-145 cells; assay type: functional, cell-based
# [30] = tested on: HeLa; experiment: Growth inhibition of human HeLa cells; assay type: functional
# [31] = tested on: HepG2; experiment: Antiproliferative activity against human HepG2 cells assessed as reduction in cell growth; assay type: functional, cell-based
# [32] = tested on: HeLa; experiment: Antiproliferative activity against human HeLa cells assessed as reduction in cell growth; assay type: functional, cell-based
# [33] = tested on: A549; experiment: Antiproliferative activity against human A549 cells assessed as inhibition of cell growth incubated for 48 hrs by tryphan blue dye based assay; assay type: functional; settings: A549, 48 h
# [34] = tested on: SW1573; experiment: Antiproliferative activity against human SW1573 cells assessed as inhibition of cell growth incubated for 48 hrs by tryphan blue dye based assay; assay type: functional; settings: SW1573, 48 h
# [35] = tested on: T47D; experiment: Antiproliferative activity against human T47D cells assessed as inhibition of cell growth incubated for 48 hrs by tryphan blue dye based assay; assay type: functional
# [36] = tested on: HeLa; experiment: Antiproliferative activity against human HeLa cells assessed as inhibition of cell growth incubated for 48 hrs by tryphan blue dye based assay; assay type: functional
# [37] = tested on: WiDr; experiment: Antiproliferative activity against human WiDr cells assessed as inhibition of cell growth incubated for 48 hrs by tryphan blue dye based assay; assay type: functional
# [38] = tested on: HBL; experiment: Antiproliferative activity against human HBL cells assessed as inhibition of cell growth incubated for 48 hrs by tryphan blue dye based assay; assay type: functional
# [39] = tested on: PC-9; experiment: Anticancer activity against human PC-9 cells assessed as inhibition of cell growth incubated for 48 hrs by MTT assay; assay type: functional, cell-based; settings: PC-9, 48 h
# [40] = tested on: A549; experiment: Anticancer activity against human A549 cells assessed as inhibition of cell growth incubated for 48 hrs by MTT assay; assay type: functional, cell-based; settings: A549, 48 h
# [41] = tested on: MCF7; experiment: Cytotoxicity against human MCF7 cells assessed as reduction in cell viability incubated for 24 hrs by MTT assay; assay type: functional, cell-based; settings: MCF7, 24 h
# [42] = tested on: HeLa; experiment: Cytotoxicity against human HeLa cells assessed as reduction in cell viability incubated for 24 hrs by MTT assay; assay type: functional, cell-based
structure (smiles),measurement,setting,value
Cc1ccc2c(c1)C(=O)C(Cl)=C(OC[C@H](C)CC[C@H]1O[C@H]3C[C@H]4[C@@H]5CC=C6C[C@@H](O[Si](C)(C)C(C)(C)C)CC[C@]6(C)[C@H]5CC[C@]4(C)[C@H]3[C@@H]1C)C2=O,IC50,[1],17.9 µM
same,IC50,[2],10.9 µM
C[C@@H]1CC[C@@]2(OC1)O[C@H]1C[C@H]3[C@@H]4CC(n5cc(-c6ccccc6)nn5)C5(O)C[C@@H](O)CC[C@]5(C)[C@H]4CC[C@]3(C)[C@H]1[C@@H]2C (stereo not given in full),IC50,[3],13.2 µM
same,IC50,[4],3.32 µM
same,IC50,[5],8.22 µM
same,IC50,[6],7.9 µM
same,IC50,[7],3.9 µM
same,IC50,[8],7.9 µM
CC(=O)O[C@H]1CC[C@@]2(C)C(=CC[C@H]3[C@@H]4C[C@@H]5O[C@H](CC[C@@H](C)COC(=O)N6CCN(C)CC6)[C@@H](C)[C@@H]5[C@@]4(C)CC[C@@H]32)C1,IC50,[9],13.5 µM
same,Activity,[10],49%
same,Activity,[11],33.66%
same,IC50,[12],15.8 µM
C[C@@H]1CC[C@@]2(OC1)O[C@H]1C[C@H]3[C@@H]4CC=C5C[C@@H](OC(=O)[C@@H](N)CCCNC(=N)N)CC[C@]5(C)[C@H]4CC[C@]3(C)[C@H]1[C@@H]2C,IC50,[13],19 µM
C[C@@H]1CC[C@@]2(OC1)O[C@H]1C[C@H]3[C@@H]4C/C(=N\O)C5=C/C(=N/O)CC[C@]5(C)[C@H]4CC[C@]3(C)[C@H]1[C@@H]2C,IC50,[14],19 µM
same,IC50,[15],22 µM
COc1cccc(COc2ccc(-c3cn(C4C[C@H]5[C@@H]6C[C@@H]7O[C@]8(CC[C@@H](C)CO8)[C@@H](C)[C@@H]7[C@@]6(C)CC[C@@H]5[C@@]5(C)CC[C@H](O)CC45O)nn3)cc2)c1 (stereo not given in full),IC50,[16],7.51 µM
same,IC50,[6],10.5 µM
same,IC50,[7],5.73 µM
CC(=O)OC[C@H](C)CCC(=O)[C@@H](C)[C@H]1[C@@H](OC(C)=O)C[C@H]2[C@@H]3CC=C4C[C@H](N=[N+]=[N-])CC[C@]4(C)[C@H]3CC[C@]12C,IC50,[17],11.8 µM
C[C@H]1CO[C@@]2(O[C@H]3C[C@H]4[C@@H]5/C(=N/CCCCC(=O)O)C=C6C[C@@H](O)CC[C@]6(C)[C@H]5CC[C@]4(C)[C@H]3[C@@H]2C)/C(=N/O)C1,Activity,[18],47.7%
same,Activity,[19],23.3%
C[C@H]1CO[C@@]2(O[C@H]3C[C@H]4[C@@H]5/C(=N/CCCCCCC(=O)O)C=C6C[C@@H](O)CC[C@]6(C)[C@H]5CC[C@]4(C)[C@H]3[C@@H]2C)/C(=N/O)C1,IC50,[20],14.6 µM
same,IC50,[21],15.8 µM
same,IC50,[22],17.1 µM
same,IC50,[23],15.8 µM
same,IC50,[24],16 µM
same,Activity,[18],41.72%
same,IC50,[25],16.6 µM
same,IC50,[26],16.6 µM
same,IC50,[27],15.6 µM
same,IC50,[28],15.2 µM
same,IC50,[29],12.8 µM
same,Activity,[19],19.73%
CC(=O)O[C@@H]1C=C2CC[C@H]3[C@@H]4C[C@@H]5O[C@@]6(OC[C@H](C)CC6/C(C)=N\O)[C@@H](C)[C@@H]5[C@@]4(C)CC[C@@H]3[C@@]2(C)CC1 (stereo not given in full),IC50,[14],5.6 µM
same,IC50,[15],5.4 µM
CC(=O)O[C@@H]1C=C2/C(=N/O)C[C@H]3[C@@H]4C[C@@H]5OC(=O)[C@@H](C)[C@@H]5[C@@]4(C)CC[C@@H]3[C@@]2(C)CC1,GI50,[30],17 µM
same,IC50,[3],14.1 µM
same,IC50,[6],7.81 µM
C[C@@H]1CC[C@@]2(OC1)O[C@H]1C[C@H]3[C@@H]4CC=C5C[C@@H](OC6=C(Cl)C(=O)c7ccccc7C6=O)CC[C@]5(C)[C@H]4CC[C@]3(C)[C@H]1[C@@H]2C,IC50,[31],17.5 µM
Cc1ccc2c(n1)C(=O)C(Cl)C(O[C@H]1CC[C@@]3(C)C(=CC[C@H]4[C@@H]5C[C@@H]6O[C@]7(CC[C@@H](C)CO7)[C@@H](C)[C@@H]6[C@@]5(C)CC[C@@H]43)C1)C2=O (stereo not given in full),IC50,[32],16 µM
CC(CCC[C@H](C)[C@H]1[C@@H](O)C[C@H]2[C@@H]3CC=C4C[C@@H](O)CC[C@]4(C)[C@H]3CC[C@]12C)C[Se]C#N (stereo not given in full),IC50,[33],1.7 µM
same,IC50,[34],2.2 µM
same,IC50,[35],3.2 µM
same,IC50,[36],3.3 µM
same,IC50,[37],5.5 µM
same,IC50,[38],2.2 µM
C[C@H](CC[C@H]1O[C@H]2C[C@H]3[C@@H]4CC=C5C[C@@H](O[Si](C)(C)C(C)(C)C)CC[C@]5(C)[C@H]4CC[C@]3(C)[C@H]2[C@@H]1C)COC1=C(Cl)C(=O)c2ccccc2C1=O,IC50,[1],17.4 µM
same,IC50,[2],5.81 µM
C[C@@H]1CC[C@@]2(OC1)O[C@H]1C[C@H]3[C@@H]4CCC5(OC#N)C[C@@H](O)CC[C@]5(C)[C@H]4CC[C@]3(C)[C@H]1[C@@H]2C (stereo not given in full),IC50,[39],8.7 µM
same,IC50,[40],5.1 µM
COc1ccc(-c2cn(C3C[C@H]4[C@@H]5C[C@@H]6O[C@]7(CC[C@@H](C)CO7)[C@@H](C)[C@@H]6[C@@]5(C)CC[C@@H]4[C@@]4(C)CC[C@H](O)CC34O)nn2)cc1 (stereo not given in full),IC50,[16],11.4 µM
same,IC50,[3],4.3 µM
same,IC50,[4],5.78 µM
same,IC50,[5],5.41 µM
same,IC50,[6],19.8 µM
CC(=O)O[C@H]1CC[C@@]2(C)C(=CC[C@H]3[C@@H]4C[C@@H]5O[C@H](CC[C@@H](C)CO)[C@@H](C)[C@@H]5[C@@]4(C)CC[C@@H]32)C1,IC50,[41],11 µM
same,IC50,[42],11.4 µM
C[C@@H]1CC[C@@]2(OC1)O[C@H]1C[C@H]3[C@@H]4CC(n5cc(-c6ccc(F)cc6)nn5)C5(O)C[C@@H](O)CC[C@]5(C)[C@H]4CC[C@]3(C)[C@H]1[C@@H]2C (stereo not given in full),IC50,[16],8.87 µM
same,IC50,[3],3.85 µM
same,IC50,[4],7.08 µM
same,IC50,[6],10.1 µM
same,IC50,[7],5.44 µM
same,IC50,[8],7.07 µM
C[C@H](CC[C@H]1O[C@H]2C[C@H]3[C@@H]4CC=C5C[C@@H](O)CC[C@]5(C)[C@H]4CC[C@]3(C)[C@H]2[C@@H]1C)COC1=C(Cl)C(=O)c2ccccc2C1=O,IC50,[1],14.1 µM
same,IC50,[2],1.24 µM
